1 compound from US20230257364A1, “PYRIDAZINONE-BASED COMPOUNDS AS AXL, C-MET, AND MER INHIBITORS AND METHODS OF USE THEREOF” (CMG Pharmaceutical Co., Ltd., priority 2022, published 2023) can be followed below.

Common to all, as to type: biochemical
One experiment concerns the target T1, MER (Homo sapiens, UniProt Q12866).
T1 sequence (Q12866 21-999): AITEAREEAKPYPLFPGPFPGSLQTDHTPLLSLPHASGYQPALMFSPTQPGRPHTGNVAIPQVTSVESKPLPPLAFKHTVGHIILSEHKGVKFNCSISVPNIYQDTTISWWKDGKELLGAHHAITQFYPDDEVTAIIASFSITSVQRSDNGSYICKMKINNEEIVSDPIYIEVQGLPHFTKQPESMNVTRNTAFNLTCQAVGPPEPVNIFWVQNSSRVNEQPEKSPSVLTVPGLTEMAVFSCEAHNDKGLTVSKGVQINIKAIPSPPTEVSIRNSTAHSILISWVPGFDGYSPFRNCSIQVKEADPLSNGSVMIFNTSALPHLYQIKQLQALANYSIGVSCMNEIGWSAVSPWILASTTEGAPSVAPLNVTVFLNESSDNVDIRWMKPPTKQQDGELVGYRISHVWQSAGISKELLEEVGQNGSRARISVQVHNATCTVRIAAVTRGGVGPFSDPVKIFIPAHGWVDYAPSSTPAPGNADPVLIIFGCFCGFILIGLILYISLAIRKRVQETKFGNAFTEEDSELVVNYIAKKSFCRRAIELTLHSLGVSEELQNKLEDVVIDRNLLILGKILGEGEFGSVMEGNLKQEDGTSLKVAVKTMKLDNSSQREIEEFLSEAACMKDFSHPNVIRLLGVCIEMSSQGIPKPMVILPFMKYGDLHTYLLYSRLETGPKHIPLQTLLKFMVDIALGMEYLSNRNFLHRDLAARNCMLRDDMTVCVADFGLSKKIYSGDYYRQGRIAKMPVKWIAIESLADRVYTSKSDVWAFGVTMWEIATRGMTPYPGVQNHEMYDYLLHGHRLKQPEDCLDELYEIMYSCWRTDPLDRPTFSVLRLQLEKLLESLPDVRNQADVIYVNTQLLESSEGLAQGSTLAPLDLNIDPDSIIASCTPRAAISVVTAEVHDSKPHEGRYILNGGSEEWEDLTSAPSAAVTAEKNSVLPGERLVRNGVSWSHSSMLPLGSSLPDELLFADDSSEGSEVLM
The experiment is described as follows: Enzymatic kinase assay (ADP-GLO), MER. The settings on record: 10 μM ATP, poly (Glu4, Tyr1) substrate, 60 min room temperature, luminescence. On the procedure:
(§1) This example illustrates an enzymatic assay to determine the inhibitory activity of exemplary compounds of Formula (I) in an aspect of the invention.
(§2) All the kinase reactions were performed in 5 μL using tyrosine kinase buffer with 0.2 μg/μL poly (Glu4, Tyr1) substrate, 10 μM ATP, serial dilution of the inhibitor, and incubated at room temperature for 60 min. After the indicated incubation times, 5 μL ADP-GLO™ reagent (Promega, Madison, Wis.) was added to the reactions and the plate was incubated at room temperature for 40 min. Then, 10 μL of kinase detection reagent was added and after an incubation time of 40 min, luminescence was recorded and IC50 values were determined (Table 1). All 384-well assay plates were read using a GLOMAX™ Discover Microplate Luminometer from Promega (Madison, Wis.). To plot, analyze the data and calculate all kinase reaction biochemical values, both Microsoft Excel and Prism from GraphPad 7 Software (La Jolla, Calif.) were used.

For the next experiment, the target named is T2, AXL (Homo sapiens, UniProt P30530).
T2 sequence (P30530 26-894): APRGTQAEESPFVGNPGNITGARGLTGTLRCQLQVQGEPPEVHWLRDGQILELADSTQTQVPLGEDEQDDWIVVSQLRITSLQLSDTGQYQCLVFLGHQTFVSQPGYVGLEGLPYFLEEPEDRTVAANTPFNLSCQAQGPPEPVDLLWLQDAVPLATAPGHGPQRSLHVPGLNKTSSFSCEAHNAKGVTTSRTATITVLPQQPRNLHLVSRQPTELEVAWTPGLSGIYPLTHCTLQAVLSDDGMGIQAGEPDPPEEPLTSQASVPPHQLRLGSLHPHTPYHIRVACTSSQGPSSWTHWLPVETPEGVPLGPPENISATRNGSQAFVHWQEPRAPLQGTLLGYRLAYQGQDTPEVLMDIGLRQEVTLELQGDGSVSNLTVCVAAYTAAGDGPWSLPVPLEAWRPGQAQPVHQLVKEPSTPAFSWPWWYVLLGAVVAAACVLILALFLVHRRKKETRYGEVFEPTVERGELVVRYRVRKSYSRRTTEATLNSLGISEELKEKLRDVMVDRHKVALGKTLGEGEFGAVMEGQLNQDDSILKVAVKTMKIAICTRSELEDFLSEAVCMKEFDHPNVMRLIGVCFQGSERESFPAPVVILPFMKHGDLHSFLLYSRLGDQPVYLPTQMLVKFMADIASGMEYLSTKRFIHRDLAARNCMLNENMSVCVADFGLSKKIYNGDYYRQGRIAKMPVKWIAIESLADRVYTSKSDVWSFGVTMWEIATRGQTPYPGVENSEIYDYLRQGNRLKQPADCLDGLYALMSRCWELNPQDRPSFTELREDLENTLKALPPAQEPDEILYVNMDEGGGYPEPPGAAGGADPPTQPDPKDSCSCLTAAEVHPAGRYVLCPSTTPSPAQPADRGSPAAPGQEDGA
As to the kind of experiment: Enzymatic kinase assay (ADP-GLO), AXL. The settings on record: 10 μM ATP, poly (Glu4, Tyr1) substrate, 60 min room temperature, luminescence. On the procedure: as §1, §2

Another experiment concerns the target C-MET (Homo sapiens, UniProt P08581). The experiment is described as follows: Enzymatic kinase assay (ADP-GLO), C-MET. To be noted: 10 μM ATP, poly (Glu4, Tyr1) substrate, 60 min room temperature, luminescence; read-out: Enzymatic assay IC50 (nM) C-MET. The procedure:
as §1
as §2, with “Then, 10 μL of kinase detection reagent was added and after an incubation time of 40 min, luminescence was recorded and IC50 values were determined (Table 1).” left out

Sequence of C-MET (P08581 25-1390): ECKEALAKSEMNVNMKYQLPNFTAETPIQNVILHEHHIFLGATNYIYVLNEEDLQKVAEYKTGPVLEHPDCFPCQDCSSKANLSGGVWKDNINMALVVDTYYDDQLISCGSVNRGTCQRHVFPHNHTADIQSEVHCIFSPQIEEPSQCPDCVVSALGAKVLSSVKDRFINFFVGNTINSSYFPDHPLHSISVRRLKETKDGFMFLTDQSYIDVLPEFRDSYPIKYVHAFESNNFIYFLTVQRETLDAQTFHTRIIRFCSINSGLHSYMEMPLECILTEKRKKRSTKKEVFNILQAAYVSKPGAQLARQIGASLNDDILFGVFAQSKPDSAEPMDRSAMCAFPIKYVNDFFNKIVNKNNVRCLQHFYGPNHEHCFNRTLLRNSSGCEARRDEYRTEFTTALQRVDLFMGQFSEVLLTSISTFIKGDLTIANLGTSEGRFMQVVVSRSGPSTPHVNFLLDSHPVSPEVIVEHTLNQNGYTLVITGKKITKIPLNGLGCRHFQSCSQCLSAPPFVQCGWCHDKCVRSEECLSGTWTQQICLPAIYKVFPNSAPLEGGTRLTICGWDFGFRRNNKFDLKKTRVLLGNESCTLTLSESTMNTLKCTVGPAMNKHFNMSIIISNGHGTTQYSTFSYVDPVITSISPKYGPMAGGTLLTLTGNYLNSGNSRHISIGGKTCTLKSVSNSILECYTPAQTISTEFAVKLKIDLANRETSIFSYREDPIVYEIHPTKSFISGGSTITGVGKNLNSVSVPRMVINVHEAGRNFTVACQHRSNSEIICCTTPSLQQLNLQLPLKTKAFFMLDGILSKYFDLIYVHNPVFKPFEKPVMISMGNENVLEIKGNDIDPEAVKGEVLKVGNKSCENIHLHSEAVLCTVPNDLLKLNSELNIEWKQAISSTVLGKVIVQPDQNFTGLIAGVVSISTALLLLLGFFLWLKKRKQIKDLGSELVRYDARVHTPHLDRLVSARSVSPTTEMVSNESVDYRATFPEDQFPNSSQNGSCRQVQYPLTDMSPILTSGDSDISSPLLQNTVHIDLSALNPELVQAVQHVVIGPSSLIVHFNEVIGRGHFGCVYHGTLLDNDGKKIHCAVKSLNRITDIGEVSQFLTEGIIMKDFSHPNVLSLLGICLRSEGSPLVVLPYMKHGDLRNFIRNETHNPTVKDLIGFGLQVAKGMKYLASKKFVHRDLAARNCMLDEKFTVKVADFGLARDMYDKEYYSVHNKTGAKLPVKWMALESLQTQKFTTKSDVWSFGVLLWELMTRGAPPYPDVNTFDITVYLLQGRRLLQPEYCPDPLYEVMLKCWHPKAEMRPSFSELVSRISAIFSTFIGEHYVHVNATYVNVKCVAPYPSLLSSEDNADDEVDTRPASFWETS

For the compound `CCCn1cc(-c2c(Oc3ccc(NC(=O)c4ccnn(-c5ccc(F)cc5)c4=O)cc3F)ccnc2N)cn1` [Example 21, N-(4-(2-amino-3-(1-propyl-1H-pyrazol-4-yl)pyridin-4-yloxy)-3-fluorophenyl)-2-(4-fluorophenyl)-3-oxo-2,3-dihydropyridazine-4-carboxamide], the results for the IC50 on MER, against AXL and on C-MET were < 100 nM, < 10 nM and > 1000 nM, respectively.
